Measured values taken from PMC5844530, “Fosmetpantotenate (RE-024), a phosphopantothenate replacement therapy for pantothenate kinase-associated neurodegeneration: Mechanism of action and efficacy in nonclinical models” (PLoS ONE, 2018).
Read-outs that look alike come from different tables or passages of the source. Each block holds one compound with its values, some of them ahead of it.

Key:
[1] = In vitro blood-brain barrier permeability (PBEC/rat astrocyte co-culture); conditions: pH 7.4, In Vitro Measured Papp, mean ± SD (n = 3)
Method: (§1) Permeability studies were performed after 2 days of co-culture with rat astrocytes. […] In each filter used for transport, a paracellular marker was included as an internal control to monitor the integrity of the cell monolayer. The day of the experiment, culture medium was removed and cells on Transwell inserts were pre-incubated for 30 min with Hank's Balanced Salt Solution (HBSS) containing 20 mM Hepes pH 7.4 and 0.1% bovine serum albumin (BSA). […] Aliquots from the basal compartment were taken after 1 h; fluorescence was measured using a fluorescence detector. The permeability coefficient of the total system was calculated as follows: P[cm/s]=Vd×ΔMr/A×Md×Δt Where:
(§2) To correct for the contribution of the porous polycarbonate membrane of the filter in the absence of cells, the permeability was also determined for the cell-free system. Contribution of the endothelial cell monolayer to the permeability of the cell and filter system was determined by the following equation: 1/Pe=1/Pt-1/Pf Where the total permeability of the system is denoted as Pt, the cell-free filter as Pf, and the endothelial cell layer alone as Pe. The total resistance of the system towards passage of a substance is composed of 2 resistances in series: that of the cell monolayer and that of the filter; permeability is estimated as 1/resistance [27]. […] Mass balance was determined based on the amount of compound recovered in the donor and receiver chamber at the end of the assay relative to the amount added to the donor chamber at time 0.

[2] = test system: porcine brain endothelial cell (PBEC) co-culture model; test: as above; conditions: in words
Method: as §1, §2

[3] = Pharmacokinetics in whole blood, CD-1 mice; conditions: male, CD-1, mouse, whole blood, oral, 100 mg/kg, Conc., blood; fosmetpantotenate 100 mg/kg PO; 2 hr; individual animals
Method: (§3) The whole blood samples (0.5 mL) were collected into syringes that were prefilled with 2.5 mL of ice-cold 0.1% formic acid in acetonitrile. The volume ratio of the whole blood to 0.1% formic acid in acetonitrile was 1/5 (v/v). Samples were frozen (-70°C) until analyzed by LC-MS/MS.
(§4) Standard curves and quality control (QC) samples were prepared fresh on the day of analysis by serial dilution of the standard mixture in quenched whole blood (1 part of blood to 5 parts of 0.1% formic acid in acetonitrile) and centrifuged. […] The frozen study samples were thawed in an ice/water bath and centrifuged. Supernatant (50 μL) from standards, QC samples, and study samples was transferred to a 96-well plate and dried completely under nitrogen. The dried residues were reconstituted with 100 μL of 0.1% formic acid in water containing internal standard (5 ng/mL of ^15N/^13C3-RE-024-02) and analyzed by LC-MS/MS.
(§5) LC-MS/MS analysis for blood pharmacokinetic samples: Samples were analyzed using an Agilent 1100 binary pump (Agilent Technologies, Santa Clara, CA, USA), connected to an AB Sciex API 6500 mass spectrometer (SCIEX, Framingham, MA, USA). An electrospray ionization source was used, scanning in the positive mode. […] The chromatography column was a Varian Metasil AQ 120–5 C18 column, 5 μm, 50 x 2.00 mm (Part No. A0530050X020) at ambient temperature, with a 0.5 mL/min flow rate and a 20 μL injection volume. Mobile phase (A) consisted of 0.1% formic acid in water; while mobile phase (B) consisted of 0.1% formic acid in acetonitrile:water (9:1, v/v).
(§6) Quantitation of in vivo samples: Peak areas were integrated using Analyst software (AB Sciex, Concord, Ontario, Canada). […] Calibration standards (at a minimum 7 per curve) were fit by linear regression with (1/x^2) weighting. QC samples were used (triplicate) at 3 concentrations for all tandem mass spectrometry (MS/MS) runs.
(§7) Pharmacokinetic calculations: PK analysis was performed using Phoenix WinNonlin®, Build 6.3.0.395 (Certara, Princeton, NJ, USA) using a non-compartmental model (PO dose = model 200 for extravascular dosing). […] Post-dose concentrations below the limit of quantitation (BLQ) were omitted from calculation.

[4] = male, CD-1, mouse, in vivo
Method: as §3, §4, §5, §6, §7

in vivo [5] = conditions: male, Sprague-Dawley, rat, po
[6] = male, C57Bl6, mouse, in vivo, po, 700 mg/kg
Method: (§8) Mice were anesthetized using isoflurane (2%, 800 mL/min O2).
(§9) For oral dosing experiments, MetaQuant microdialysis probes (regenerated cellulose membrane, BrainLink, the Netherlands) were inserted into the striatum (3 mm exposed surface). Coordinates for the tips of the probes for mice were anterior-posterior (AP) = +0.8 mm from bregma, lateral (L) = -1.7 mm from midline, and ventral (V) = -4.0 mm from dura, the toothbar set at 0 mm.
(§10) Microdialysis animal dosing and sample collection: Adult non-fasted male C57Bl6 mice (20–29 g; Harlan Laboratories, Livermore, CA), and Macaca fascicularis (4–9 kg, 3–6 yr old) were used for the experiments. For oral dosing, fosmetpantotenate was formulated as a solution in 20% hydroxypropyl-beta-cyclodextrin in 50 mM citrate buffer in water pH 5.0 and administered using a dose volume of 10 mL/kg. Mice (N = 6 serially sampled) received fosmetpantotenate as a single oral dose at 700 mg/kg and monkeys received a single oral dose at either 100 mg/kg (N = 4 serially sampled) or 300 mg/kg (N = 2 serially sampled).
(§11) Microdialysis: On the morning of the microdialysis experiment, a MetaQuant probe was inserted into the guide shaft targeting the head of the caudate nucleus and perfused at a rate of 0.15 μL/min aCSF containing 0.2% (w/v) BSA, with a carrier flow of 0.8 μL/min of ultrapure water.
(§12) A single 30 min pre-dose basal dialysate sample was collected from mice over -0.5 to 0 h, and three 30 min basal samples from monkeys over -1.5 to 0 h. Fosmetpantotenate was administered at t = 0, and 30 min dialysate samples were collected for an additional 4 h for mice and 3 h for monkeys.
(§13) Sample preparation for mouse dialysate samples: Concentrations of fosmetpantotenate, PA, and PPA in mouse dialysate were determined by Nextcea, Inc, Woburn, MA, using LC-MS/MS. Standard curves and QC samples containing fosmetpantotenate (D1 and D2) and the surrogate analytes for PA and PPA (^15N/^13C3-PA and ^15N/^13C3-PPA) were prepared fresh in 0.1% formic acid in water. Frozen study mouse dialysate samples were thawed in ice/water bath. Standards, QC samples, and thawed study dialysate samples (20 μL) were mixed with 20 μL 0.1% formic acid in water containing internal standard (50 ng/mL of ^15N/^13C3-fosmetpantotenate) and analyzed by LC-MS/MS.
(§14) LC-MS/MS analysis for mouse dialysate samples: Concentrations of fosmetpantotenate, PA, and PPA in dialysate from mice were determined by using LC-MS/MS conditions described for blood PK analysis by Nextcea, except dialysate samples were analyzed using an ACIEX API 5000 and flow rate was increased to 0.6 mL/min.
(§15) Quantitation of in vivo samples: Peak areas were integrated using Analyst software (AB Sciex, Concord, Ontario, Canada). Calibration curves for all blood samples from mouse and rat PK studies and mouse dialysate samples were prepared by plotting the analyte to internal standard (^15N/^13C3-fosmetpantotenate) peak area ratio vs concentration.

in vivo [7] = conditions: male, CD-1, mouse, po
Method: as §3, §4, §5, §6, §7

[8] = male, Sprague-Dawley, rat, in vivo
in vivo [9] = conditions: male, C57Bl6, mouse, po, 700 mg/kg
Method: as §8, §9, §10, §11, §12, §13, §14, §15

[10] = Microdialysis (striatal dialysate and blood) in cynomolgus monkeys; format: in vivo, cynomolgus monkey; conditions: cynomolgus monkey, in vivo, po
Method: Monkeys were sedated by intramuscular (i.m.) ketamine administration and cannulated for intravenous (i.v.) administration of propofol infusion (initiated 15–30 min after ketamine administration). Subsequently, the animals were placed in an magnetic resonance imaging (MRI)-compatible stereotaxic frame (Kopf Model 1430), and T1 and T2 weighted scans (for up to 1 h) were carried out with a 7 cm loop-coil in a 3 Tesla Siemens Magnetom TIM Trio (Germany). To derive the coordinates, Digital Imaging and Communications in Medicine (DICOM) files were transformed into Neuroimaging Informatics Technology Initiative (NIFTI) format. NIFTI-compatible images were loaded into 3D viewer software (MRIcro version 1.40 build 1), and the stereotaxic zero in the MRI image was determined using the coordinates of the earbar-tips. Coordinates for placement of the guide cannulas were calculated for every individual animal by use of MRI images and a primate brain map.
On a separate day, microdialysis guide cannulas were placed bilaterally in the head of the caudate nucleus using the same MRI compatible stereotaxic frame (Kopf Model 1430), under isoflurane anesthesia. Prior to surgery, animals were administered ketamine (i.m.), and subsequently anesthetized with isoflurane (0.8%-2% inhalation) while artificially ventilated with O2/N2O (40/60) at 60 to 80 mL tidal volume via an intratracheal tube. During surgery, subcutaneous or i.v. fluids were provided. Animals were allowed to recover from the anesthesia in a warmed environment, single housed, and given at a minimum a 14-day post-surgery recovery time. The following medications were administered to reduce pain and inflammation, as well as reduce the chance of post-operative infection: meloxicam (Metacam 5 mg/mL, 0.2 mg/kg, buprenorphine (Temgesic, 0.3 mg/mL, 0.0038 mg/kg), enrofloxacine (25 mg/mL, 5 mg/kg), and amoxicillin (150 mg/mL, 15 mg/kg).
Samples were stored in -80°C.
From monkeys only, whole blood samples (0.5 mL) were collected from the femoral vein at -1, 0, 1, 2, and 3 h relative to dosing and transferred immediately to chilled polypropylene 15 mL vials containing 2500 μL of 0.15% formic acid in acetonitrile, mixed, and placed on dry ice. After the collections samples were stored at -80°C.
Sample preparation for monkey dialysate and blood samples: Concentrations of fosmetpantotenate (D1 and D2), PA, and PPA in monkey dialysate and blood samples were determined by Brains On-Line LLC. […] For dialysate quantitation, standards and QC samples were prepared in control dialysate (0.2% BSA in aCSF: water: 0.04% ascorbic acid in aqueous 0.02 M formic acid [4.5:24:6 v/v/v]). Standards, QC samples, and dialysate (10 μL) were mixed with 6 μL 20 mM formic acid and 0.01% ascorbic acid in water containing internal standard (10 ng/mL of ^15N/^13C3-PA) and analyzed by LC-MS/MS. Blood standards and QC samples were prepared in supernatant from control monkey blood which had been treated with 5 volumes of 0.15% formic acid in acetonitrile. Endogenous levels >LLOQ were detected for PA in control quenched blood only and quantitated at 56.56 nM based on calibration standard prepared in solvent. To compensate for endogenous PA in the calibration curve control blood, PA standard curve concentrations were spiked plus endogenous levels. Sample work-up of blood involved diluting 10 μL supernatant from study blood samples, standards, and QC samples with 90 μL of 20 mM formic acid and 0.01% ascorbic acid in water, then treating with 4 μL 20 mM formic acid and 0.01% ascorbic acid in water containing internal standard (10 ng/mL of ^15N/^13C3-PA) and analyzing by LC-MS/MS.

in vivo [11] = conditions: cynomolgus monkey, po, 300 mg/kg
Method: as §3, §4, §5, §6, §7

[12] = test system: porcine brain endothelial cell (PBEC) co-culture model
Method: as §1, §2

[13] = PA Concentration in Mouse Striatal Dialysate (Corrected for Dilution)
[14] = PA Concentration in Mouse Striatal Dialysate (Corrected for Dilution), Mean

SMILES: C=CCN1CC[C@]23c4c5ccc(O)c4O[C@H]2C(=O)CC[C@@]3(O)[C@H]1C5 [Naloxone]
Papp at 1 h [1]: 42.3 ± 11 ×10⁻⁶ cm/s | blood-brain barrier permeability classification [2]: high permeability range

concentration at 2 h [3]: 282 nM | fold increase in AUC as dose increased from 100 to 700 mg/kg [4]: 3.1 fold | fold increase in Cmax as dose increased from 100 to 700 mg/kg [4]: 2.4 fold | AUC (in vivo [5]; 100 mg/kg): 8.68 µM·h | Cmax (in vivo [5]; 100 mg/kg): 1340 nM | AUC (in vivo [5]; 300 mg/kg): 32.5 µM·h | Cmax (in vivo [5]; 300 mg/kg): 4750 nM | AUC (in vivo [5]; 700 mg/kg): 40.1 µM·h | Cmax (in vivo [5]; 700 mg/kg): 7900 nM | PA Concentration in Mouse Striatal Dialysate (Corrected for Dilution), Mean ([6]; 1.5 h): 61.5 nM | PA Concentration in Mouse Striatal Dialysate (Corrected for Dilution), Mean ([6]; 2 h): 80.7 nM | PA Concentration in Mouse Striatal Dialysate (Corrected for Dilution), Mean ([6]; 2.5 h): 87.6 nM | PA Concentration in Mouse Striatal Dialysate (Corrected for Dilution), Mean ([6]; 3 h): 95.3 nM | AUC (in vivo [7]; 100 mg/kg): 3.4 µM·h | Cmax (in vivo [7]; 100 mg/kg): 683 nM | AUC (in vivo [7]; 300 mg/kg): 5.76 µM·h | Cmax (in vivo [7]; 300 mg/kg): 771 nM | AUC (in vivo [7]; 700 mg/kg): 10.5 µM·h | Cmax (in vivo [7]; 700 mg/kg): 1610 nM | fold increase in AUC as dose increased from 100 to 700 mg/kg [8]: 4.6 fold | fold increase in Cmax as dose increased from 100 to 700 mg/kg [8]: 5.9 fold | AUC (in vivo [9]): 0.154 ± 0.105 µM·h | Cmax (in vivo [9]; PA Cmax): 88 ± 74.3 nM | concentration at 0 h (in vivo [9]; [13]): 52.8 nM | concentration at 0.5 h (in vivo [9]; [13]): 65.1 nM | concentration at 1 h (in vivo [9]; [13]): 77.7 nM | concentration at 0 h (in vivo [9]; [14]): 50.7 nM | concentration at 0.5 h (in vivo [9]; [14]): 57.7 nM | concentration at 1 h (in vivo [9]; [14]): 75.6 nM | concentration at 3.5 h (in vivo [9]; [14]): 115 nM | concentration at 4 h (in vivo [9]; [14]): 128 nM | Cmax (in vivo [9]; total PA Cmax): 130 nM | Papp at 1 h (in vitro; pH 7.4, In Vitro Measured Papp): 4.2 ± 1.3 ×10⁻⁶ cm/s | Papp at 60 min (in vitro; pig, pH 7.4, Papp): 5.6 ×10⁻⁶ cm/s | AUC ([10]; 300 mg/kg): 2.17 µM·h | Cmax ([10]; 300 mg/kg): 1300 nM | AUC ([10]; cynomolgus, 100 mg/kg): 0.467 ± 0.152 µM·h | Cmax ([10]; cynomolgus, 100 mg/kg): 255 ± 70 nM | AUC ([10]; cynomolgus, 300 mg/kg): 9.34 µM·h | Cmax ([10]; cynomolgus, 300 mg/kg): 4270 nM | AUC (in vivo [11]): 3.35 µM·h | Cmax (in vivo [11]): 589 nM | blood-brain barrier permeability classification [12]: permeable
SMILES: CC(C)(CO)[C@@H](O)C(=O)NCCC(=O)O [PA, pantothenate]
